{
  "source": "patent US20150352075A1",
  "about": "“Treatment of Alzheimer's and Cognitive Impairment With Andrographolides” (INNOBIOSCIENCE, LLC, priority 2013, published 2015)",
  "key": {"[1]": {"system": "dentate gyrus of wild-type mice", "test": "Adult hippocampal neurogenesis (Ki67, DCX immunofluorescence)", "format": "in vivo", "experimental": "Animals. Two-month-old C57BC6 wild-type mice were treated and handled according to National Institutes of Health guidelines (NIH, […], Md.). The treatments were performed by intraperitoneal (ip) injection of 2.0 mg/kg ANDRO and wild-type control animals were injected only with saline solution as vehicle.\nMice were anesthetized (100 μg ketamine+10 μg xylazine in […] saline/g), and then transcardially perfused with saline, followed by 4% paraformaldehyde (PFA) in 0.1M PBS. The brains were removed and incubated in PBS-4% PFA for 24 h at room temperature, dehydrated in 30% sucrose and kept at 4° C. until analysis.\nAfter dehydration, each mouse brain was sectioned on a cryostate in 12 sets of serial coronal sections of […] thickness (Leica Microsystems, Wetzlar, Germany) and collected in ice-cold-PBS in multiwell dishes.Each set contained 5-7 sections covering the entire length of the hippocampus.\nSections were washed with PBS 3 times for 5 min and then incubated in blocking solution (3% donkey serum, 3% BSA, 0.5% Triton X-100 in PBS) for 4 h. Then, tissues were incubated overnight with primary antibodies at 4° C. Primary antibodies used were: rabbit anti-Ki67 (Abcam), rabbit anti-DCX (Cell Signaling Technology Inc., Beverly, Mass., USA), monoclonal anti-NeuN (Millipore, Billerica, Mass., USA). After washing 3 times with 0.5% Triton X-100 PBS, sections were incubated with Dy Light (Abcam) conjugated secondary antibodies for 2 h at room temperature. […] For quantification, Ki67 positive cells were countedusing a fluorescence microscope (Olympus BX51, Tokyo, Japan). Cells were counted in all sections of one set (see tissue sectioning). Total cells counted in one set were multiplied by the total number of sets to obtain an estimation of the total number of Ki67+ cells in the complete hippocampus. For quantification of the % area covered by DCX, double labeling DCX/NeuN was carried. […] Images shown were analyzed by confocal laser microscopy (Olympus FV 1000) and z-projections were generated with ImageJ software."}, "[2]": {"system": "GSK-3β", "test": "Immunoblot of GSK-3β phosphorylation state and β-catenin in Wt hippocampal slices", "format": "cell-based, mice", "experimental": "The hippocampus and cortex of treated or control transgenic mice were dissected on ice and immediately processed has detailed previously (Toledo & Inestrosa 2010). Briefly, hippocampal and cortical tissues were homogenized in RIPA buffer (10 mM Tris-Cl, pH 7.4, EDTA 5 mM, 1% NP-40, 1% sodium deoxycholate, and 1% SDS) supplemented with a protease inhibitor mixture and phosphatase inhibitors (25 mMNaF, 100 mM Na3VO4 and 30 μM Na4P2O7) using a Potter homogenizator and then passed sequentially through different caliber syringes. Protein samples were centrifuged at 14000 rpm at 4° C. twice for 15 min Protein concentrations were determined using the BCA Protein Assay Kit (Pierce). Samples were resolved by SDS-PAGE followed by immunoblotting on PVDF membranes. Western blot assays were carried out as previously described (Inestrosa et al 2013; Toledo & Inestrosa 2010).\nHippocampal slices were prepared according to standard procedures previously described (Cerpa et al 2010; VarelaNallar et al 2010). Briefly, transverse slices (350 μm) from the dorsal hippocampus were cut under cold artificial cerebrospinal fluid (ACSF, in mM: 124 NaCl, […], 10 D-glucose, 2.69 KCl, 1.25 KH2PO4 2.5 CaCl2, 1.3 MgSO4, y 2.60 NaHPO4) using a V ibratome (Leica VT 1000s, Germany) and incubated in ACSF for 1 h at room temperature. In all experiments, 10 μM picrotoxin (PTX) was added to suppress inhibitory GABAA transmission (Cuitino et al 2010). Slices were transferred to an experimental chamber (2 ml), superfused (3 ml/min, at 20-22° C.) with gassed ACSF and visualized by trans-illumination with a binocular microscope (MSZ-10, Nikon, Melville, N.Y.). […] The paired pulse facilitation index was calculated by ((R2−R1)/R1), where R1 and R2 were the peak amplitudes of the first and second fEPSP respectively. […] Evoked postsynaptic responses were analyzed off-line, using an analysis software (pClampfit, Molecular Devices), which allowed visual detection of events, computing only those events that exceeded and arbitrary threshold."}, "[3]": {"system": "APPswe/PS-1 double transgenic mice", "test": "Slot blot of Aβ oligomers (A11 antibody) in hippocampus of treated mice", "format": "in vivo"}, "[4]": {"details": "2-month-old mice, 2 mg/kg i.p. 3 times per week for 4 weeks"}, "[5]": {"details": "Wt hippocampal slices, 10 μM ANDRO for 1 hr (FIG. 5)"}},
  "data": [
    {"smiles": "C=C1CC[C@@H]2C(C)(CO)C(O)CC[C@@]2(C)C1C/C=C1/C(=O)OCC1O", "note": "(stereo in doubt) [ANDRO, 3-(2-(Decahydro-6-hydroxy-5-(hydroxymethyl)-5,8a-dimethyl-2-methylenenaphthyl)ethylidene)dihydro-4-hydroxyfuran-2(3H)-one]", "values": [
      {"measurement": "percentage of the granular cell layer covered by DCX staining", "setting": "[1]; [4]", "result": "significantly increased"},
      {"measurement": "total number of Ki67+ cells in the SGZ", "setting": "[1]; [4]", "result": "significantly increased the total number of Ki67^+ cells"},
      {"measurement": "morphology of DCX+ cells", "setting": "[1]; compared to control mice", "result": "more complex morphology"},
      {"measurement": "levels of β-catenin", "setting": "[2]; Wt hippocampal slices incubated with ANDRO", "result": "increase in the levels of β-catenin"},
      {"measurement": "active form of GSK-3β (Tyr-216 phosphorylation)", "setting": "[2]; [5]", "result": "reduction of the active form (Tyr-216)"},
      {"measurement": "inactive form of GSK-3β (Ser-9 phosphorylation)", "setting": "[2]; [5]", "result": "increase in the levels of the inactive form of GSK-3P (Ser-9)"},
      {"measurement": "level of Aβ oligomers (A11 slot-blot)", "setting": "[3]; 7 month-old APPswe/PS-1 mice", "result": "did not show significant changes"},
      {"measurement": "levels of Aβ-oligomers (A11 slot blot)", "setting": "[3]; FIG. 3G mice (legend: old APPswe/PS-1)", "result": "did not show significant changes"}
    ]}
  ]
}
